Patent US5686448A (priority 1995, dated 1997)
Like-named read-outs stand apart in the source and are kept apart here.

System: HSV-1 (F strain)
Experimental: In Series No. 1 of Example No. 1, monolayer cultures of Vero, RK-13 (rabbit kidney), and WISH (human amnion, Hayflick) cells were used in the experiments of Example No. 1. The cells were grown in Basal Minimal Eagle's Media supplemented with 5% fetal calf serum, 1% glutamine, sodium bicarbonate and antibiotics. Cultures were maintained in a maintenance media that was the same media, except that the maintenance media contained 2% fetal calf serum. An F Strain of HSV-1 was chosen because it is a well-known prototype of HSV-1. This F Strain can be obtained from the American Type Culture Collection (ATCC), 12301 Parklawn Drive, Rockville, Md. 20852, at which it is identified as ATC-VR 733. For studies with HSV-2, a G strain of HSV-2 (ATCC-VR 734) and a 333 strain of HSV-2 were selected. These strains also can be obtained from the ATCC.
Two methods were used to test the drug's effectiveness in the suppression of viral growth. In the pre-inoculation experiments, the drug was added after adsorption of the virus. In the pre-incubation experiments, the drug was added prior to infection of the cell cultures.
Accordingly, the pre-inoculation experiments measured the effect of the drug on a cell that was already infected with the virus. The pre-incubation experiments measured the cell cultures that were treated with the drug prior to the inoculation to determine if these cells then would be permissive or non-permissive to the tested virus. In these experiments, plaque reduction assays provided a quantitative measure of antiviral activity and was deemed to be reliable and objective.
In the pre-incubation experiments, the media was either decanted or gently aspirated from the cultures. After decanting or aspirating, 1 ml of the drug dilution plus maintenance media was added to the cultures. The cultures that served as virus controls or cell controls received 2 ml of maintenance media. After the pre-treatment period, the media was again aspirated and the cell cultures were infected with the virus.
When this occurred, the cultures were fixed and stained with crystal violet. The plaque were then carefully counted under the microscope. By such a counting and careful comparison, percentages of plaque inhibition in the treated cultures were then calculated.
These duplicate wells were incubated for 3 hours. After this time, the maintenance media was aspirated and the cultures were infected. Fresh maintenance media was then added.

[1] = Exp. 1E, 4 hours pre-incubation, 100 mg/culture
[2] = Exp. 1E, 7 hours pre-incubation, 100 mg/culture

CC[N+](CC)(CC)CC.[Cl-] [TEAC, tetraethylammonium chloride]
% plaque inhibition (Exp. 1D, 3 hours before infection, 12.5 mg/culture): 80%
% plaque inhibition (Exp. 1D, 3 hours before infection, 25.0 mg/culture): 79%
% plaque inhibition (Exp. 1D, 3 hours before infection, 50.0 mg/culture): 82%
% plaque inhibition (Exp. 1D, 3 hours before infection, 100.0 mg/culture): 79%
% plaque inhibition (Exp. 1E, 2 hours pre-incubation, 12.5 mg/culture): 18%
% plaque inhibition (Exp. 1E, 2 hours pre-incubation, 25 mg/culture): 17%
% plaque inhibition (Exp. 1E, 2 hours pre-incubation, 50 mg/culture): 24%
% plaque inhibition (Exp. 1E, 2 hours pre-incubation, 100 mg/culture): 68%
% plaque inhibition (Exp. 1E, 4 hours pre-incubation, 12.5 mg/culture): less than 20%
% plaque inhibition (Exp. 1E, 4 hours pre-incubation, 50 mg/culture): 63%
% plaque inhibition [1]: 100%
cell layer appearance (thin) [1]: thin
% plaque inhibition (Exp. 1E, 7 hours pre-incubation, 12.5 mg/culture): 76%
% plaque inhibition [2]: 100%
cell layer appearance (thin) [2]: thin
permissiveness of cells to virus (added before viral inoculation, summary): rendered the cells non-permissive to the virus and no plaque formed
